Test results from ChEMBL document CHEMBL6134800, “Applications of innovative synthetic strategies in anticancer drug discovery: The driving force of new chemical reactions” (Bioorg Med Chem Lett, 2025).
Converted amounts (≈) assume the structure as drawn.

Tests used:
[1] = tested on: A549; experiment: Antiproliferative activity against human A549 cells assessed as reduction in cell viability incubated for 24 hrs by MTT assay; type: functional, cell-based; settings: A549, 24 h
[2] = tested on: HCT-116; experiment: Antiproliferative activity against human HCT-116 cells assessed as reduction in cell viability incubated for 24 hrs by MTT assay; type: functional, cell-based; settings: HCT-116, 24 h
[3] = tested on: HeLa; experiment: Antiproliferative activity against human HeLa cells assessed as reduction in cell viability incubated for 24 hrs by MTT assay; type: functional, cell-based
[4] = tested on: A549; experiment: Cytotoxicity against human A549 cells assessed as reduction in cell growth by resazurin assay; type: functional, cell-based
[5] = tested on: Escherichia coli; experiment: Antimicrobial activity against Escherichia coli assessed as reduction in microbial growth; type: functional, organism-based
[6] = tested on: Bacillus subtilis; experiment: Antibacterial activity against Bacillus subtilis assessed as reduction in bacterial growth; type: functional, organism-based
[7] = tested on: HL-60; experiment: Cytotoxicity against human HL-60 cells assessed as reduction in cell growth by resazurin assay; type: functional, cell-based
[8] = tested on: NIH3T3; experiment: Cytotoxicity against mouse NIH/3T3 cells assessed as reduction in cell growth by resazurin assay; type: functional, cell-based
[9] = tested on: MCF7; experiment: Growth inhibition of human MCF7 cells measured for 48 hrs by SRB assay; type: functional
[10] = Cytotoxicity against human BEAS-2B cells assessed as reduction in cell viability by MTT assay; type: toxicity, cell-based
[11] = tested on: A549; experiment: Growth inhibition of human A549 cells measured for 48 hrs by SRB assay; type: functional
[12] = tested on: HepG2; experiment: Growth inhibition of human HepG2 cells measured for 48 hrs by SRB assay; type: functional
[13] = tested on: PC-3; experiment: Growth inhibition of human PC-3 cells measured for 48 hrs by SRB assay; type: functional
[14] = tested on: MCF7; experiment: Cytotoxicity against human MCF7 cells assessed as reduction in cell viability incubated for 48 hrs by SRB assay; type: functional, cell-based; settings: MCF7, 48 h
[15] = tested on: HeLa; experiment: Cytotoxicity against human HeLa cells assessed as reduction in cell viability incubated for 48 hrs by SRB assay; type: functional, cell-based
[16] = tested on: MDA-MB-231; experiment: Cytotoxicity against human MDA-MB-231 cells assessed as reduction in cell viability incubated for 48 hrs by SRB assay; type: functional, cell-based; settings: MDA-MB-231, 48 h
[17] = tested on: DU-145; experiment: Cytotoxicity against human DU-145 cells assessed as reduction in cell viability incubated for 48 hrs by SRB assay; type: functional, cell-based; settings: DU-145, 48 h
[18] = tested on: HepG2; experiment: Cytotoxicity against human HepG2 cells assessed as reduction in cell viability incubated for 48 hrs by SRB assay; type: functional, cell-based; settings: HepG2, 48 h
[19] = tested on: MCF7; experiment: Antiproliferative activity against human MCF7 cells; type: functional, cell-based
[20] = tested on: MDA-MB-231; experiment: Antiproliferative activity against human MDA-MB-231 cells; type: functional, cell-based
[21] = tested on: T47D; experiment: Antiproliferative activity against human T47D cells; type: functional, cell-based
[22] = tested on: LoVo; experiment: Antiproliferative activity against human LoVo cells; type: functional, cell-based
[23] = tested on: HCT-116; experiment: Antiproliferative activity against human HCT-116 cells; type: functional, cell-based
[24] = tested on: HeLa; experiment: Antiproliferative activity against human HeLa cells assessed as reduction in cell growth by MTT assay; type: functional, cell-based
[25] = tested on: A549; experiment: Antiproliferative activity against human A549 cells assessed as reduction in cell growth by MTT assay; type: functional, cell-based
[26] = Antioxidant activity assessed as hydroxyl radical scavenging activity; type: functional
[27] = Antioxidant activity assessed as DPPH radical scavenging activity; type: functional
[28] = tested on: BXPC-3; experiment: Antiproliferative activity against human BXPC-3 cells assessed as reduction in cell growth incubated for 72 hrs by MTT assay; type: functional, cell-based; settings: Homo sapiens, BXPC-3, 72 h
[29] = tested on: HCT-116; experiment: Anticancer activity against human HCT-116 cells assessed as reduction in cell viability; type: functional, cell-based
[30] = tested on: HCT-116; experiment: Anticancer activity against human HCT-116 cells assessed as inhibition of cell viability at 20 uM relative to control; type: functional

SMILES: Cc1cc(C(F)(F)F)c2c(n1)-c1ccccc1C2c1ccsc1 (centres undefined)
- IC50 [1]: > 50 µM
- IC50 [2]: > 50 µM
- IC50 [3]: 2.32 µM

SMILES: CN1C(=O)C2(N=C(c3ccccc3)N3CCc4cc(Br)cc2c43)c2ccccc21 (centres undefined)
- IC50 [1]: 1 µM

SMILES: N#CC1=C(N)Oc2ccccc2C1P(=O)(OCc1ccccc1)OCc1ccccc1 (centres undefined)
- IC50 [4]: 26.5 µM
- IC50 [5]: > 10 µM
- IC50 [6]: > 10 µM
- IC50 [7]: 6.25 µM
- IC50 [8]: 8.73 µM

SMILES: COc1cccc2c1C(=O)c1c(O)c3c(c(O)c1C2=O)C[C@@](O)(C(=O)CO)C[C@@H]3O[C@H]1C[C@H](N)[C@H](O)[C@H](C)O1 [DOXORUBICIN]
- GI50 [9]: < 10 µg/mL
- IC50 [10]: 4.18 µg/mL (≈ 7.69 µM)
- GI50 [11]: < 10 µg/mL
- IC50 [4]: 0.31 µM
- GI50 [12]: < 10 µg/mL
- IC50 [8]: 5.65 µM
- GI50 [13]: < 10 µg/mL

SMILES: CCOC(=O)c1sc(-c2ccc(OCC(C)C)c(C(Nc3ccc(C(F)(F)F)cc3I)P(=O)(OCC)OCC)c2)nc1C (centres undefined)
- IC50 [14]: 14.1 µg/mL (≈ 18.7 µM)
- IC50 [15]: 12.3 µg/mL (≈ 16.3 µM)
- IC50 [16]: 8.54 µg/mL (≈ 11.3 µM)
- IC50 [17]: 3.34 µg/mL (≈ 4.43 µM)
- IC50 [18]: 26.1 µg/mL (≈ 34.6 µM)

SMILES: C=C1N(S(=O)(=O)c2ccc(C)cc2)c2ccccc2C1(C)N (racemic)
- IC50 [19]: 3.92 µM
- IC50 [20]: 3.13 µM
- IC50 [21]: 5.37 µM
- IC50 [22]: 10.3 µM
- IC50 [23]: 12.6 µM

SMILES: Cc1c2n(c3ccc(F)cc13)C(O)(C(F)(F)F)C=C2c1ccccc1 (centres undefined)
- IC50 [24]: 2.69 µM
- IC50 [25]: 6.34 µM

SMILES: CCc1cc(C(=O)c2ccccc2Cl)c(NC(c2cc(OC)c(OC)c(OC)c2)c2c(O)ccc3ccccc23)s1 (centres undefined)
- GI50 [9]: < 10 µg/mL
- IC50 [26]: 32.8 µM
- IC50 [27]: 33.5 µM
- GI50 [11]: < 10 µg/mL
- GI50 [12]: < 10 µg/mL
- GI50 [13]: < 10 µg/mL

SMILES: Cc1c2n(c3ccccc13)C(O)(C(F)(F)F)C=C2c1ccccc1 (centres undefined)
- IC50 [24]: 31.6 µM
- IC50 [25]: 1.26 µM

SMILES: CCOC(=O)c1sc(-c2ccc(OCC(C)C)c(C(Nc3ccc(OC)cc3)P(=O)(OCC)OCC)c2)nc1C (centres undefined)
- IC50 [14]: 12.5 µg/mL (≈ 21.2 µM)
- IC50 [15]: 10.7 µg/mL (≈ 18.1 µM)
- IC50 [16]: 8.18 µg/mL (≈ 13.8 µM)
- IC50 [17]: 3.02 µg/mL (≈ 5.11 µM)
- IC50 [18]: 22 µg/mL (≈ 37.3 µM)

SMILES: Nc1ccn([C@@H]2O[C@H](CO)[C@@H](O)C2(F)F)c(=O)n1 [GEMCITABINE]
- IC50 [28]: 2.3 µM

SMILES: CC(C)OC(=O)C1=CN(c2ccccc2)CC(O)(c2cccc(Cl)c2)O1 (centres undefined)
- IC50 [29]: 7.1 µM
- inhibition at 20 µM [30]: 77%
